Assay [1] concerns the target T1, progestin receptor from rabbit uterus (Oryctolagus cuniculus, UniProt P06186).
T1 construct: Cytosolic progestin receptor were obtained by mixing rabbit uterine tissue with a Tris buffer; from tissue; host or cells: rabbit uterus cytosol
Kind of assay: Progestin receptor binding (3H-R5020 displacement). The following applies: rabbit uterine cytosol, 4° C., 18 h, read-out: IC50: Binding affinity for the progestin receptor from rabbit uterus. A digest of the protocol: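 Displacement of the radioligand 3H-R5020 was measured in cytosol from homogenized rabbit uterus (pH 7.4 Tris/EDTA/DTT/molybdate buffer), with compounds at 5% final DMSO and about 18 h at 4 °C. Charcoal removed free ligand, scintillation counting quantified bound ligand, and IC50 was the concentration displacing half.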

Assay [2] relates to Human T47D breast carcinoma cells. Description: Ex vivo progestational test (T47D proliferation). The following applies: SC200, 3H-thymidine incorporation. The assay is classed as cell-based. The method, then:
The progestational activity of the compounds was accessed by their ability to stimulate proliferation of human breast carcinoma cells. Proliferation was measured as the ability to stimulate ^3 H-thymidine incorporation into these cells in vitro. Human T47D breast carcinoma cells (American Type Tissue Collection #133-HTB) were maintained in media consisting or RPMI 1640 supplemented with 10% fetal bovine serum, 10 ug/ml insulin, 10 U/ml pennicillin, 100 ug/ml streptomycin, and 2 mM L-glutamine. Monolayer cell cultures were trypsinized and washed in assay media consisting of phenol red-free RPMI 1640 supplemented with 5% charcoal-stripped, fetal bovine serum, and the other ingredients listed above. Cells were then plated in a 96-well plate. After a 48-hour incubation period at 37° C., the conditioned media was removed and replaced with fresh media containing test compounds in DMSO (0.1% DMSO final concentration). The cell cultures were incubated for 18 to 20 hours at 37° C. ^3 H-thymidine was then added to each well and the cell cultures were incubated at 37° C. for an additional 4 hours. Labelling was stopped by addition of un labelled thymidine. The cultures were washed twice, trypsinized and then harvested onto a filter mat. Incorporated ^3 -H-thymidine was measured by liquid scintillation counting. Data was expressed as a percent stimulation above control level which was set at 100%. An SC200 value was calculated as the concentration of test material needed to stimulate ^3 H-thymidine incorporation 200% of control.
Aspects of the application of the procedure used are described in the following: C. Christensen, D. Gunter, D. Saunders and V. Malviya, Gynecol. Oncol., 28, 25 (1987); J. Puzas, R. Drivdahl, G. Howard and D. Baylink, Proc. Soc. Exp. Biol. Med., 166, 113 (1981); and I. Keydar, L. Chen, S. Karby, F. Weiss, J. Delarea, M. Raduy, S. Chaitcik and H. Brenner, Eur. J. Cancer, 15, 659 (1979)

Assay [3] concerns mouse (MC3T3-E1) and human (TE-85) osteoblast-line cells. Format: cell-based. A digest of the protocol: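 Proliferation was read as ^3H-thymidine (0.4 μCi) uptake during a 4 h pulse, which started 20 h after compound addition. Before dosing, cells sat 24 h in 0.1% FBS. Values are % times control (100%).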

Read-outs that look alike come from different tables or passages of the source.

T1 sequence (P06186 whole entry): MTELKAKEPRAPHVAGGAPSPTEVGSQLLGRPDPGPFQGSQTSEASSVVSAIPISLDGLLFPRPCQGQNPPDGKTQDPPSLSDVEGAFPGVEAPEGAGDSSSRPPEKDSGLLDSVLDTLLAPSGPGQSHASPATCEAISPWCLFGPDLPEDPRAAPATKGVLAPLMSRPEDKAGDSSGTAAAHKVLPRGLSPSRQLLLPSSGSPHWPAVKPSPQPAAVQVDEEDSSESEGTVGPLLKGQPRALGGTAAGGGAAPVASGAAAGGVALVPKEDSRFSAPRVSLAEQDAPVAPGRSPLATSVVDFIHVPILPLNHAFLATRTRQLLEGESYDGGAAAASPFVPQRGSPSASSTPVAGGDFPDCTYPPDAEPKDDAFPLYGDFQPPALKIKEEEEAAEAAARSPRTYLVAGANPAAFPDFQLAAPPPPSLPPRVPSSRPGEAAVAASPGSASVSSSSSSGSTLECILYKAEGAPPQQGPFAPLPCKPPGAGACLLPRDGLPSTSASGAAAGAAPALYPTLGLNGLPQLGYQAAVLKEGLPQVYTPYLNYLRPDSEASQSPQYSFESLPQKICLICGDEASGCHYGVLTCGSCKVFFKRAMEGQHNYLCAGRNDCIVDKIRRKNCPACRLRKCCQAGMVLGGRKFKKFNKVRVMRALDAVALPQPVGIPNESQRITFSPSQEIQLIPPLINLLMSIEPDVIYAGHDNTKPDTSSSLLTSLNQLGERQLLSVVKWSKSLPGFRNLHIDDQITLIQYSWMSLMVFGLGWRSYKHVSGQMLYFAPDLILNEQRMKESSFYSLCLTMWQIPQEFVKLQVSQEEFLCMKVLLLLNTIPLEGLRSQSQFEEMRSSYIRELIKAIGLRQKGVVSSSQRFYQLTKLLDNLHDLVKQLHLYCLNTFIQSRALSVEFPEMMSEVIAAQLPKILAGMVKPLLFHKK

As to `CCCCc1ccc(C2=NN(S(=O)(=O)c3ccc(C)cc3)CCC2)cc1` [Compound 74], the IC50 in assay [1] was 10000 nM. The “T47D: Concentration to elicit a 200% increase in T47D Human breast cell proliferation” value in assay [2] was determined as 10000.
The corresponding values for `O=S(=O)(c1ccccc1)N1CCCC(c2cccc(Cl)c2)=N1` [Compound 95] are 10.2 nM and 10000.
Take `O=S(=O)(c1cc(Cl)ccc1Cl)N1CCCC(c2ccc(Cl)c(C(F)(F)F)c2)=N1` [Compound 79, 3-(4-chloro-3-trifluoromethylphenyl)-1-(2,5-dichlorobenzenesulphonyl)-1,4,5,6-tetrahydropyridazine]: the 50% inhibitory concentration (IC50) in assay [1] was 0.9 nM. For the same molecule, the “T47D: Concentration to elicit a 200% increase in T47D Human breast cell proliferation” value in assay [2] is 10000.
As for `CCCCc1ccc(C2=NN(S(=O)(=O)c3cc(Cl)ccc3Cl)CCC2)cc1` [Compound 69], the half-maximal inhibitory concentration (IC50) in assay [1] stood at 10000 nM. The “T47D: Concentration to elicit a 200% increase in T47D Human breast cell proliferation” value in assay [2] is given as 10000.
For `O=S(=O)(c1cccc(Cl)c1)N1CCCC(c2ccc(Cl)c(Cl)c2)=N1` [Compound 109] the same measures were 1.09 nM and 1620.
On to `O=S(=O)(c1cc(Cl)cc(Cl)c1)N1CCCC(c2ccc(Cl)c(Cl)c2)=N1` [Compound 104], for which the IC50 in assay [1] came to 0.85 nM. Also, the “T47D: Concentration to elicit a 200% increase in T47D Human breast cell proliferation” value in assay [2] is reported as 76.
The corresponding values for `O=S(=O)(c1cccc(Cl)c1Cl)N1CCCC(c2ccc(Cl)c(Cl)c2)=N1` [Compound 105, 3-(3,4-dichlorophenyl)-1-(2,3-dichlorobenzenesulphonyl)-1,4,5,6-tetrahydropyridazine] are 1.87 nM and 1070.
The corresponding values for `O=S(=O)(c1ccc(I)cc1)N1CCCC(c2ccc3ccccc3c2)=N1` [Compound 119, 3-(naphth-2-yl)-1-(4-iodobenzenesulphonyl)-1,4,5,6-tetrahydropyridazine] are 2.53 nM and 868.
For `Cc1ccc(S(=O)(=O)N2CCCC(c3ccc4ccccc4c3)=N2)cc1` [Compound 120], the IC50 in assay [1] turned out to be 13.3 nM. Also, the “T47D: Concentration to elicit a 200% increase in T47D Human breast cell proliferation” value in assay [2] was 831.
The corresponding values for `O=S(=O)(/C=C/c1ccc(Cl)cc1)N1CCCC(c2ccc(Cl)c(C(F)(F)F)c2)=N1` [Compound 178] are 5.18 nM and 164.
Regarding `O=[N+]([O-])c1cc(S(=O)(=O)N2CCCC(c3ccc(Cl)c(Cl)c3)=N2)ccc1Cl` [Compound 111], the IC50 in assay [1] was found to be 16 nM. The “T47D: Concentration to elicit a 200% increase in T47D Human breast cell proliferation” value in assay [2] is on record as 10000.
Regarding `O=[N+]([O-])c1ccc(S(=O)(=O)N2CCCC(c3ccc(F)cc3)=N2)cc1` [Compound 10], the “Osteoblast Cell Proliferation, 3H-thymidine incorporation vs control (100%)” value (“Osteoblast Cell Proliferation … (100%)” for short) in assay [3] (10^-6) was 91%; in assay [3] (10^-7), 90%; in assay [3] (10^-8), 123%; in assay [3] (10^-9), 115%; in assay [3] (10^-10), 139%. Moreover, the 50% inhibitory concentration (IC50) in assay [1] came out at 1050 nM.
On to `O=P(OC1CCCC1)(c1ccccc1)N1CCCC(c2ccc(Cl)c(Cl)c2)=N1` (stereo not shown) [Compound 257], for which the “Osteoblast Cell Proliferation … (100%)” value in assay [3] (10^-6) was determined as 86%; in assay [3] (10^-7) it was 114%; in assay [3] (10^-8), 122%; in assay [3] (10^-9) it was 112%; in assay [3] (10^-10) it was 114%. Moreover, the IC50 in assay [1] was found to be 300 nM.
Consider `O=C(c1ccc(Br)cc1)N1CCCC(c2ccc(Cl)cc2)=N1` [Compound 198], for which the “Osteoblast Cell Proliferation … (100%)” value in assay [3] (10^-6) came out at 94%; in assay [3] (10^-7), 97%; in assay [3] (10^-8), 112%; in assay [3] (10^-9) it was 99%; in assay [3] (10^-10), 85%. Also, the IC50 in assay [1] is 10000 nM.
As to `O=C(c1cccc(Cl)c1)N1CCCC(c2ccc(Cl)cc2)=N1` [Compound 199], the “Osteoblast Cell Proliferation … (100%)” value in assay [3] (10^-6) is reported as 105%; in assay [3] (10^-7) it was 104%; in assay [3] (10^-8), 96%; in assay [3] (10^-9) it was 83%; in assay [3] (10^-10), 61%. Besides, the IC50 in assay [1] is 100000 nM.
As for `COc1ccc(C2=NN(C(=O)c3ccc(Cl)cc3)CCC2)cc1` [Compound 184], the “Osteoblast Cell Proliferation … (100%)” value in assay [3] (10^-6) was determined as 84%; in assay [3] (10^-7), 102%; in assay [3] (10^-8), 113%; in assay [3] (10^-9), 146%; in assay [3] (10^-10), 131%. Also, the IC50 in assay [1] came out at 100000 nM.
As for `O=S(=O)(c1ccc2ccccc2c1)N1CCCC(c2cccc(Cl)c2)=N1` [Compound 94], the “Osteoblast Cell Proliferation … (100%)” value is 110% in assay [3] (10^-6); 85% in assay [3] (10^-7); 90% in assay [3] (10^-8); 110% in assay [3] (10^-9); 130% in assay [3] (10^-10). Moreover, the IC50 in assay [1] is 14.6 nM.
As for `CCOP(=O)(c1ccccc1)N1CCCC(c2ccc(Cl)c(Cl)c2)=N1` (stereo not shown) [Compound 255], the “Osteoblast Cell Proliferation … (100%)” value in assay [3] (10^-6) is listed as 107%; in assay [3] (10^-7), 125%; in assay [3] (10^-8), 139%; in assay [3] (10^-9), 132%; in assay [3] (10^-10), 145%. In assay [1], the IC50 is 204 nM.
`CC(C)(C)c1ccc(C(=O)N2CCCC(c3ccccc3)=N2)cc1` [Compound 197]: the “Osteoblast Cell Proliferation … (100%)” value in assay [3] (10^-6) was 87%; in assay [3] (10^-7), 89%; in assay [3] (10^-8), 91%; in assay [3] (10^-9) it was 81%; in assay [3] (10^-10), 52%. Besides, in assay [1], the IC50 amounted to 100000 nM.
Regarding `O=S(=O)(c1ccccc1)N1CCCC(c2ccc(-c3ccccc3)cc2)=N1` [Compound 86], the “Osteoblast Cell Proliferation … (100%)” value in assay [3] (10^-6) came out at 100%; in assay [3] (10^-7) it was 114%; in assay [3] (10^-8) it was 94%; in assay [3] (10^-9), 103%; in assay [3] (10^-10), 101%. Besides, the half-inhibitory concentration (IC50) in assay [1] came to 228 nM.
Turning to `O=C(c1ccccc1)N1CCCC(c2ccc(Cl)cc2)=N1` [Compound 191, 1-Benzoyl-3-(4-chlorophenyl)-1,4,5,6-tetrahydropyridazine], the “Osteoblast Cell Proliferation … (100%)” value in assay [3] (10^-6) came out at 86%; in assay [3] (10^-7), 133%; in assay [3] (10^-8), 126%; in assay [3] (10^-9), 133%; in assay [3] (10^-10), 123%. For the same molecule, the IC50 in assay [1] was 100000 nM.
For the molecule `O=S(=O)(c1cccc2ccccc12)N1CCCC(c2ccc(Cl)cc2)=N1` [Compound 15], the “Osteoblast Cell Proliferation … (100%)” value worked out at 94% in assay [3] (10^-6); 108% in assay [3] (10^-7); 114% in assay [3] (10^-8); 123% in assay [3] (10^-9); 123% in assay [3] (10^-10). Besides, in assay [2], the “T47D: Concentration to elicit a 200% increase in T47D Human breast cell proliferation” value is on record as 10000.

For the origin of these results see patent publication US5684151A, “1-arylsulphonyl, arylcarbonyl and 1-arylphosphonyl-3-phenyl-1,4,5,6-tetrahydropyridazines” (priority 1995, dated 1997).
